# Measured values reported in ChEMBL document CHEMBL5346876, “Hybrids of polyphenolic/quinone acids, the potential preventive and therapeutic drugs for PD: Disaggregate α-Syn fibrils, inhibit inclusions, and repair damaged neurons in mice” (Eur J Med Chem, 2023).
# Activity calls are given as the source filed them. No cut-off for these calls is given here.
# What was measured:
# H4 [1] = assay: Antioxidant activity in H2O2-induced human H4 cells assessed as ROS scavenging at 10 uM preincubated with H2O2 for 3 hrs followed by DCFH-DA addition for 30 mins and further incubated with compound and measured after 30 mins by DCFH-DA dye based fluorescence microplate reader analysis relative to control; assay type: functional; details: 0.5 h
# H4 [2] = assay: Antioxidant activity in H2O2-induced human H4 cells assessed as reduction in ROS generation ratio preincubated with H2O2 for 3 hrs followed by DCFH-DA addition for 30 mins and further incubated with compound and measured after 30 mins by DCFH-DA dye based fluorescence microplate reader analysis; assay type: functional, cell-based; details: dose 3-10 µM
# [3] = Cytotoxicity against human SH-SY5Y cells assessed as cell viability at 100 uM incubated for 48 hrs by CCK-8 assay relative to control; assay type: toxicity, cell-based; details: read-out: Activity
# [4] = Cytotoxicity against human H4 cells assessed as cell viability at 100 uM incubated for 48 hrs by CCK-8 assay relative to control; assay type: toxicity, cell-based; details: read-out: Activity
# Mus musculus [5] = assay: Neuroprotective activity against 6-OHDA-induced lesioned C57 mouse model of Parkinson's disease assessed as reduction in ipsilateral dopaminergic neuron damage in caudate putamen nucleus of brain administered via right striatum and measured after 21 days by immunofluorescence staining analysis; assay type: functional, organism-based; details: time 21.0 day
# Mus musculus [6] = assay: Neuroprotective activity against 6-OHDA-induced lesioned C57 mouse model of Parkinson's disease assessed as improvement of poor balance administered via right striatum and measured after 14 days by rotarod test; assay type: functional, organism-based; details: time 14.0 day
# Mus musculus [7] = assay: Neuroprotective activity against 6-OHDA-induced lesioned C57 mouse model of Parkinson's disease assessed as improvement of weakened grip administered via right striatum and measured after 14 days by rotarod test; assay type: functional, organism-based; details: time 14.0 day
# Mus musculus [8] = assay: Neuroprotective activity against 6-OHDA-induced lesioned C57 mouse model of Parkinson's disease assessed as improvement of stiff limbs administered via right striatum and measured after 14 days by rotarod test; assay type: functional, organism-based; details: time 14.0 day
# Mus musculus [9] = assay: (§1) Neuroprotective activity against 6-OHDA-induced lesioned C57 mouse model of Parkinson's disease assessed as increase in survival of ipsilateral dopaminergic neuron in substantia nigra pars reticulate of brain by measuring tyrosine hydroxylase fluorescence intensity administered via right striatum and measured after 21 days by immunofluorescence staining analysis (reference value: 9.7 %); assay type: functional; details: time 21 day
# Mus musculus [10] = assay: Neuroprotective activity against 6-OHDA-induced lesioned C57 mouse model of Parkinson's disease assessed as reduction in apomorphine-induced contralateral rotation by measuring decrease in turn number preadministered with compound for 14 days via right striatum and measured 30 mins after apomorphine addition by videotaping analysis relative to control; assay type: functional; parameters: scale not given: the % may be the effect or the level left; details: time 336.5 hrs
# Mus musculus [11] = assay: as §1, with “caudate putamen nucleus” for “substantia nigra pars reticulate”, “11.5” for “9.7”; assay type: functional; details: time 21 day
# Mus musculus [12] = assay: Neuroprotective activity against 6-OHDA-induced lesioned C57 mouse model of Parkinson's disease assessed as reduction in weight loss administered via right striatum and measured after 14 days; assay type: functional, organism-based; details: time 14.0 day
# [13] = Toxicity in C57 mouse assessed as effect on time spend in rod administered via right striatum and measured after 14 days by rotarod test; details: in vivo, other, 336 h, time 14 day
# Mus musculus [14] = assay: Neuroprotective activity against 6-OHDA-induced lesioned C57 mouse model of Parkinson's disease assessed as protection of dopaminergic neuronal damage administered via right striatum and measured after 21 days; assay type: functional, organism-based; details: time 21.0 day
# Mus musculus [15] = assay: Neuroprotective activity against 6-OHDA-induced lesioned C57 mouse model of Parkinson's disease assessed as reduction of dopaminergic neuronal damage at 2.7 ug administered via right striatum and measured after 21 days; assay type: functional, organism-based; details: dose 2.7 µg, time 21.0 day
# [16] = Toxicity in C57 mouse assessed as effect on survival of ipsilateral dopaminergic neuron in caudate putamen nucleus of brain administered via right striatum and measured after 21 days by immunofluorescence staining analysis; details: in vivo, other, 504 h, time 21 day
# [17] = Toxicity in C57 mouse assessed as effect on survival of ipsilateral dopaminergic neuron in substantia nigra pars reticulate of brain administered via right striatum and measured after 21 days by immunofluorescence staining analysis; details: in vivo, other, 504 h, time 21 day
# H4 [18] = assay: Antioxidant activity in H2O2-induced human H4 cells assessed as reduction in exogenous ROS level by measuring dark green fluorescence preincubated with H2O2 for 3 hrs followed by compound addition and measured after 30 mins by flow cytometric analysis; assay type: functional, cell-based
# H4 [19] = assay: Antioxidant activity in H2O2-induced human H4 cells assessed as reduction in endogenous ROS level by measuring green fluorescence preincubated with H2O2 for 3 hrs followed by compound addition and measured after 30 mins by flow cytometric analysis; assay type: functional, cell-based
Compound,Activity (H4 [1]),Activity (H4 [2]),"viability at 48 h, 100 µM [3]","viability at 48 h, 100 µM [4]",other results
O=C(/C=C/c1ccc(O)c(O)c1)Nc1ccc(NC(=O)c2ccc(F)cc2)cc1,70%,Dose-Dependent Effect,–,–,–
O=C1C=CC(=O)C(/C=C/C(=O)Nc2ccc(NC(=O)c3ccc(F)cc3)cc2)=C1,70%,Dose-Dependent Effect,> 85%,> 85%,–
O=C(/C=C/c1cc(O)ccc1O)Nc1ccc(NC(=O)/C=C/c2cc(O)ccc2O)cc1,70%,Dose-Dependent Effect,> 85%,> 85%,Activity (Mus musculus [5]): Active; Activity (Mus musculus [6]): Active; Activity (Mus musculus [7]): Active; Activity (Mus musculus [8]): Active; Flu intensity (Mus musculus [9]): 65.1%; Activity (Mus musculus [10]): 87%; Flu intensity (Mus musculus [11]): 66.2%; Activity (Mus musculus [12]): Active; Time [13]: 264 s; Activity (Mus musculus [14]): Dose-Dependent Effect; Activity (Mus musculus [15]): Active; Activity [16]: Non-Toxic; Activity [17]: Non-Toxic
O=C(/C=C/c1cc(O)ccc1O)Nc1ccc(NC(=O)c2ccc(O)cc2)cc1,70%,Dose-Dependent Effect,> 85%,> 85%,–
O=C(/C=C/c1cc(O)ccc1O)Nc1ccc(NC(=O)c2ccc(F)cc2F)cc1,–,Dose-Dependent Effect,> 85%,> 85%,Activity (H4 [18]): Active; Activity (H4 [19]): Active
O=C1C=CC(=O)C(/C=C/C(=O)Nc2ccc(NC(=O)c3ccc(F)cc3F)cc2)=C1,–,Dose-Dependent Effect,> 85%,> 85%,Activity (H4 [18]): Active; Activity (H4 [19]): Active
O=C1C=CC(=O)C(/C=C/C(=O)Nc2ccc(NC(=O)c3ccc(F)c(F)c3)cc2)=C1,–,Dose-Dependent Effect,> 85%,> 85%,–
